“And” between values parts separate entries of the source, which are not always exact repeats. Identical values can stand only once.
Test system: human ovarian cancer cisplatin-resistant cultured cell A2480CP
Assay: ^13C-NMR of excised cancer cells and femoral muscle after intravenous administration to tumour-bearing nude mice
Details: for ^13C Area integrated value, Cancer cells: 300 mg/kg, caudal vein, peak areas 90 to 160 ppm, relative to 100 = first animal after 8 hours, two animals
Source text: Nude mice (female BALB Cnu/nu, about 8 mm in cancer diameter) were used after 3 weeks of the transplantation of 2×10^6 cells/animal of human ovarian cancer cisplatin-resistant cultured cell A2480CP to the right-side body subcutaneously. Preparation of ^13C-labeled 5-aminolevulinic acid aqueous solution:
5-Aminolevulinic acid hydrochloride in which the 5-position carbon was replaced with ^13C (Production Example 4) was used. The 5-aminolevulinic acid hydrochloride in which the 5-position carbon was replaced with ^13C was dissolved in distilled water at a ratio of 25 g/L, and the solution was neutralized to pH 7 with sodium hydroxide.
The thus neutralized solution was sterilized by immediately passing through a 0.22 μm filter and administered from the mouse caudal vein at a ratio of 12 μl per g body weight. This dose corresponds to 300 mg administration of 5-aminolevulinic acid hydrochloride per 1 kg body weight. After 2, 4 and 8 hours of the administration, mice were sacrificed and subjected to bloodletting, and then the cancer cells and femoral part were excised and packed in 10 mmφ NMR sample tubes to the same volume to measure ^13C-NMR by super-conductive NMR, JNM-A400 manufactured by JEOL, at an observation frequency of 100.50 MHz using a proton decoupling method.
After the measurement, peak areas of from 90 to 160 ppm were integrated, and relative values were calculated based on the value 100 of the first animal after 8 hours of the administration. The test was carried out using two animals for each condition.

## Cl.N[13CH2]C(=O)CCC(=O)O [^13C-labeled 5-aminolevulinic acid, 5-Aminolevulinic acid hydrochloride in which the 5-position carbon was replaced with ^13C]
2 hours after administration
  ^13C Area integrated value, Cancer cells: 19 and 22
4 hours after administration
  ^13C Area integrated value, Cancer cells: 89 and 73
8 hours after administration
  ^13C Area integrated value, Cancer cells: 100 and 87
Summary of Table 3, 2, 4 and 8 hours after administration
  existing frequency of ^13C, cancer cells versus muscle: higher in the cancer cells than in the muscle
